Experiment [1] deals with T1, Full-length human Chk1 protein (Homo sapiens, UniProt O14757).
T1 construct: purchased Carna Biosciences, Inc. 02-117
T1 sequence (O14757 1-476): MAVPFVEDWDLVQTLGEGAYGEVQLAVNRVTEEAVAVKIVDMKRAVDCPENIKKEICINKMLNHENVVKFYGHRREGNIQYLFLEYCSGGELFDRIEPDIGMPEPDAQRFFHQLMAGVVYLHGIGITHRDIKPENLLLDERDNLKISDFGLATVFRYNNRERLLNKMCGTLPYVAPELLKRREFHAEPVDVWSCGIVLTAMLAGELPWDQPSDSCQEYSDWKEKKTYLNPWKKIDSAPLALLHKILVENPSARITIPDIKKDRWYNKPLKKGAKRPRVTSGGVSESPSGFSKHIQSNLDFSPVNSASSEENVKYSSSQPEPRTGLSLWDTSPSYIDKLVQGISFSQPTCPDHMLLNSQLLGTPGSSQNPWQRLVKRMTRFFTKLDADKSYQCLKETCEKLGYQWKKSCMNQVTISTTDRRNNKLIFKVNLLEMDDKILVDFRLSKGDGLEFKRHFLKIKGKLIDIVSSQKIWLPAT
The experiment in a line: Kinase HTRF biochemical assay (HTRF KinEASE), Chk1 enzyme activity. Particulars: full-length human Chk1, ATP 1 mM, 60 minutes at room temperature. On the procedure: Example A: Kinase HTRF Biochemical Assay
Chk1 enzyme activity was measured using an HTRF KinEASE assay (Cisbio, catalog no. 62ST1PEC). Full-length human Chk1 protein (GenBank accession number NP_001265.1) was obtained from Carna Biosciences, Inc. (Kobe, Japan, catalog no. 02-117). The enzyme reaction was carried out in assay buffer containing (final concentrations): Chk1 enzyme (0.012 ng/μL), MgCl2 (5 mM) and DTT (1 mM). To determine compound dose response, DMSO stock solutions were serially diluted in a 10-point concentration series in duplicate. Compound solution (50 nL) was added to 384-well assay plates (Greiner, catalog no. 784075). To each well containing compound solution was added assay buffer solution (5 μL). Plates were centrifuged at 1000 rpm for 1 minute, then incubated at room temperature for 10 minutes. The reaction was started by addition of substrate buffer (5 μL/well) containing (final concentrations): STK substrate 1-biotin (120 nM) and ATP (1 mM). Assay plates were centrifuged at 1000 rpm for 1 minute, then incubated at room temperature for 60 minutes. The reaction was stopped by addition of detection buffer (Cisbio, 10 μL) containing (final concentrations): STK antibody-cryptate (0.25 nM) and streptavidin-XL665 (7.5 nM). Plates were centrifuged at 1000 rpm for 1 minute, then incubated at 25° C. for 2 hours. HTRF signal was read on an EnVision multimode plate reader […] in HTRF mode. Data were fit to dose-response curves using XLfit (IDBS, Surrey, UK) or Prism (GraphPad Software, La Jolla, Calif., US) to calculate IC50 values for each compound tested.

The test system of a further experiment is p-CHK1 (Ser345). Briefly: AlphaLISA SureFire Ultra p-CHK1 (Ser345) cellular assay in HT29 cells. In kind it is cell-based. As to conditions: Homo sapiens, HT-29, 16 h at 37° C. The protocol: Example B: AlphaLisa Cellular Assay
Compound activity in cells was measured using an AlphaLISA® SureFire® Ultra™ p-CHK1 (Ser345) assay (Perkin Elmer, catalog no. ALSU-PCHK1-A10K). HT29 cells were cultured in McCoy 5A medium with 10% FBS and 1% penicillin-streptomycin and seeded to 96-well plates (Corning, catalog no. 3599). Compounds were serially diluted in DMSO over a 10-point dose range with 3-fold dilution and to each well containing cells was added compound solution. Plates were centrifuged at 1000 rpm for 30 seconds. Plates were incubated at 37° C. for 16 h. Supernatant was removed by flicking the plate against a paper towel. Wells were washed once with PBS solution. To each well was added freshly prepared lysis buffer and plates were agitated on a plate shaker at 400 rpm for 30 min. The 96-well cell plates were centrifuged at 1500 rpm for 1 minute. From each well was transferred 10 μL of the lysates to a 384-well Optiplate™ (Perkin Elmer, catalog no. 6007290). To each well was added Acceptor Mix (5 μL) and the plates were sealed and wrapped in foil. Plates were agitated on a plate shaker for 2 minutes, then incubated at room temperature for 1 h. To each well was added Donor Mix (5 μL) and the plates were sealed and wrapped in foil. Plates were agitated on a plate shaker for 2 minutes, then incubated at room temperature for 1 h. AlphaLisa signal was read on an EnVision multimode plate reader (Perkin Elmer). Data were fit to dose-response curves using XLfit (IDBS, Surrey, UK) or Prism (GraphPad Software, La Jolla, Calif., US) to calculate IC50 values for each compound tested.
(In Alpha technology, singlet oxygen from a donor bead excites a nearby acceptor bead.)

Structures are written as SMILES.

With `N#Cc1cnc(Nc2cc(-c3ncccc3O[C@@H]3CC[C@H](N)C3)[nH]n2)cn1` [Example 1-63, 5-((5-(3-(((1R,3S)-3-aminocyclopentyl)oxy)pyridin-2-yl)-1H-pyrazol-3-yl)amino)pyrazine-2-carbonitrile], the IC50 in experiment [1] was 0.01 to 0.1 µM; with p-CHK1 (Ser345), 0.1 to 0.5 µM.
Consider `Cc1nc(-c2cc(Nc3cnc(C#N)cn3)n[nH]2)c(O[C@@H]2CC[C@H](N)C2)cc1F` [Example 3-50, 5-((5-(3-(((1R,3S)-3-aminocyclopentyl)oxy)-5-fluoro-6-methylpyridin-2-yl)-1H-pyrazol-3-yl)amino)pyrazine-2-carbonitrile], for which the IC50 in experiment [1] fell in the range of 0.01 to 0.1 µM; in the experiment with p-CHK1 (Ser345), 0.05 to 0.1 µM.
In the same order, the values of `N#Cc1cnc(Nc2cc(-c3cccc(F)c3O[C@@H]3CC[C@H](N)C3)[nH]n2)cn1` [Example 3-13, 5-((5-(2-(((1R,3S)-3-aminocyclopentyl)oxy)-3-fluorophenyl)-1H-pyrazol-3-yl)amino)pyrazine-2-carbonitrile] are 0.1 to 0.5 µM and more than 1 µM.
On the same counts, the results for `COc1cccc(O[C@@H]2CC[C@H](N)C2)c1-c1cc(Nc2cnc(C#N)cn2)n[nH]1` [Example 1-7, 5-((5-(2-(((1R,3S)-3-aminocyclopentyl)oxy)-6-methoxyphenyl)-1H-pyrazol-3-yl)amino)pyrazine-2-carbonitrile] are not above 0.01 µM and not above 0.05 µM.
For `N#Cc1cnc(Nc2cc(-c3c(O[C@@H]4CC[C@@H](N)C4)ccc(F)c3F)[nH]n2)cn1` [Example 3-28, 5-((5-(6-(((1R,3R)-3-aminocyclopentyl)oxy)-2,3-difluorophenyl)-1H-pyrazol-3-yl)amino)pyrazine-2-carbonitrile], the figures for the IC50 (in experiment [1]; in the experiment on p-CHK1 (Ser345)) were not above 0.01 µM and 0.1 to 0.5 µM, respectively.
In the same order, the values of `COc1c(F)ccc(O[C@@H]2CC[C@H](N)C2)c1-c1cc(Nc2cnc(C#N)cn2)n[nH]1` [Example 1-26, 5-((5-(6-(((1R,3S)-3-aminocyclopentyl)oxy)-3-fluoro-2-methoxyphenyl)-1H-pyrazol-3-yl)amino)pyrazine-2-carbonitrile] are 0.01 to 0.1 µM and 0.05 to 0.1 µM.
On the same counts, the results for `CCOc1cccc(O[C@@H]2CC[C@H](N)C2)c1-c1cc(Nc2cnc(C#N)cn2)n[nH]1` [Example 1-23, 5-((5-(2-(((1R,3S)-3-aminocyclopentyl)oxy)-6-ethoxyphenyl)-1H-pyrazol-3-yl)amino)pyazine-2-carbonitrile] are 0.01 to 0.1 µM and 0.1 to 0.5 µM.
On the same counts, the results for `COc1c(F)ccc(O[C@H]2CC[C@H](N)CC2)c1-c1cc(Nc2cnc(C#N)cn2)n[nH]1` [Example 1-20, 5-((5-(6-(((1r,4r)-4-aminocyclohexyl)oxy)-3-fluoro-2-methoxyphenyl)-1H-pyrazol-3-yl)amino)pyrazine-2-carbonitrile] are 0.01 to 0.1 µM and 0.1 to 0.5 µM.
With `COc1cccc(O[C@H]2CCCC[C@H](N)C2)c1-c1cc(Nc2cnc(C#N)cn2)n[nH]1` [Example 3-7, 5-((5-(2-(((1S,3S)-3-aminocycloheptyl)oxy)-6-methoxyphenyl)-1H-pyrazol-3-yl)amino)pyrazine-2-carbonitrile], the IC50 in experiment [1] is not above 0.01 µM; with p-CHK1 (Ser345) it was not above 0.05 µM.
On the same counts, the results for `COc1cccc(O[C@@H]2CC[C@@H](N)C2)c1-c1cc(Nc2cnc(C#N)cn2)n[nH]1` [Example 1-8, 5-((5-(2-(((1R,3R)-3-aminocyclopentyl)oxy)-6-methoxyphenyl)-lH-pyrazol-3-yl)amino)pyrazine-2-carbonitrile] are not above 0.01 µM and not above 0.05 µM.
On the same counts, the results for `CN[C@H]1C[C@H](Oc2ccc(C)nc2-c2cc(Nc3cnc(C#N)cn3)n[nH]2)C1` [Example 1-61, 5-((5-(6-methyl-3-((1r,3r)-3-(methylamino)cyclobutoxy)pyridin-2-yl)-1H-pyrazol-3-yl)amino)pyrazine-2-carbonitrile] are 0.01 to 0.1 µM and 0.1 to 0.5 µM.
In experiment [1], `CC(C)Oc1cccc(O[C@H]2C[C@H](N)C2)c1-c1cc(Nc2cnc(C#N)cn2)n[nH]1` [Example 1-15, 5-((5-(2-((1r,3r)-3-aminocyclobutoxy)-6-isopropoxyphenyl)-1H-pyrazol-3-yl)amino)pyrazine-2-carbonitrile] yielded an IC50 of 0.1 to 0.5 µM.
The same measure, in the same setting: the result for `COc1cccc(O[C@@H]2CCC[C@@H](N)C2)c1-c1cc(Nc2cnc(C#N)cn2)n[nH]1` [Example 1-64, 5-((5-(2-(((1R,3R)-3-aminocyclohexyl)oxy)-6-methoxyphenyl)-1H-pyrazol-3-yl)amino)pyrazine-2-carbonitrile] reads more than 1 µM.
The same measure, in the same setting: the result for `N#Cc1cnc(Nc2cc(-c3c(OC4CCC4)cccc3O[C@@H]3CC[C@H](N)C3)[nH]n2)cn1` [Example 1-36, 5-((5-(2-(((1R,3S)-3-aminocyclopentyl)oxy)-6-cyclobutoxyphenyl)-1H-pyrazol-3-yl)amino)pyrazine-2-carbonitrile] reads 0.1 to 0.5 µM; that for `N#Cc1cnc(Nc2cc(-c3c(F)cccc3O[C@H]3CCCC[C@@H](N)C3)[nH]n2)cn1` [Example 3-36, 5-((5-(2-(((1S,3R)-3-aminocycloheptyl)oxy)-6-fluorophenyl)-1H-pyrazol-3-yl)amino)pyrazine-2-carbonitrile], not above 0.01 µM.
Still for that read-out and setting: the result for `Cc1nc(-c2cc(Nc3cnc(C(N)=O)cn3)n[nH]2)c(O[C@@H]2CC[C@H](N)C2)cc1F` [Example 3-51, 5-((5-(3-(((1R,3S)-3-aminocyclopentyl)oxy)-5-fluoro-6-methylpyridin-2-yl)-1H-pyrazol-3-yl)amino)pyrazine-2-carboxamide] reads more than 1 µM.
In experiment [1], `COCc1cccc(O[C@@H]2CC[C@H](N)C2)c1-c1cc(Nc2cnc(C#N)cn2)n[nH]1` [Example 1-30, 5-((5-(2-(((1R,3S)-3-aminocyclopentyl)oxy)-6-(methoxymethyl)phenyl)-1H-pyrazol-3-yl)amino)pyrazine-2-carbonitrile] had an IC50 of more than 1 µM.
The same measure, in the same setting: the result for `N#Cc1cnc(Nc2cc(-c3c(F)cccc3O[C@@H]3CC[C@@H]3N)[nH]n2)cn1` [Example 3-32, 5-((5-(2-((1R,2S)-2-aminocyclobutoxy)-6-fluorophenyl)-1H-pyrazol-3-yl)amino)pyrazine-2-carbonitrile] reads 0.01 to 0.1 µM.
On the same count and under the same terms, the result for `COc1cccc(O[C@@H]2CCCC[C@@H](N)C2)c1-c1cc(Nc2cnc(C#N)cn2)n[nH]1` [Example 3-6, 5-((5-(2-(((1R,3R)-3-aminocycloheptyl)oxy)-6-methoxyphenyl)-1H-pyrazol-3-yl)amino)pyrazine-2-carbonitrile] reads 0.1 to 0.5 µM.
On the same count and under the same terms, the result for `N#Cc1cnc(Nc2cc(-c3c(OC4CCC4)cccc3O[C@H]3CC[C@H](N)CC3)[nH]n2)cn1` [Example 1-34, 5-((5-(2-(((1r,4r)-4-aminocyclohexyl)oxy)-6-cyclobutoxyphenyl)-1H-pyrazol-3-yl)amino)pyrazine-2-carbonitrile] reads 0.1 to 0.5 µM.
Regarding `COc1ccc(Cl)c(O[C@@H]2CC[C@H](N)C2)c1-c1cc(Nc2cnc(C#N)cn2)n[nH]1` [Example 4-4, 5-((5-(2-(((1R,3S)-3-aminocyclopentyl)oxy)-3-chloro-6-methoxyphenyl)-1H-pyrazol-3-yl)amino)pyrazine-2-carbonitrile], the IC50 in experiment [1] lay in the range of 0.1 to 0.5 µM.

As usually defined, the IC50 is the concentration that gives 50% inhibition.

(Values after patent publication US11707462B2, “Checkpoint kinase 1 (CHK1) inhibitors and uses thereof” (Boundless Bio, Inc., priority 2021, dated 2023).)
